# Data from ChEMBL document CHEMBL4619826, “Insights into the Molecular Determinants Involved in Urocontrin and Urocontrin A Action” (ACS Med Chem Lett, 2020).
# Experiments:
# Thoracic aorta [1] = test: Contractile activity in Sprague-Dawley rat thoracic aorta assessed as contraction in aortic ring preincubated ofr 30 mins followed by URP or human U2-stimulation; format: functional, tissue-based
# Thoracic aorta [2] = test: Contractile activity in Sprague-Dawley rat thoracic aorta assessed as ratio of KCl-induced contraction to human U2-induced contraction in aortic ring at 10^-11 to 3 x 10^-6 M relative to control; format: functional
# Urotensin-2 receptor = molecular target: T1, Urotensin-2 receptor (Homo sapiens, UniProt Q9UKP6); test: Antagonist activity at human UT receptor expressed in HEK293 cells using Na [125I] incubated for 2 hrs by gamma counting method; format: cell-based
# T1 sequence (Q9UKP6 whole entry): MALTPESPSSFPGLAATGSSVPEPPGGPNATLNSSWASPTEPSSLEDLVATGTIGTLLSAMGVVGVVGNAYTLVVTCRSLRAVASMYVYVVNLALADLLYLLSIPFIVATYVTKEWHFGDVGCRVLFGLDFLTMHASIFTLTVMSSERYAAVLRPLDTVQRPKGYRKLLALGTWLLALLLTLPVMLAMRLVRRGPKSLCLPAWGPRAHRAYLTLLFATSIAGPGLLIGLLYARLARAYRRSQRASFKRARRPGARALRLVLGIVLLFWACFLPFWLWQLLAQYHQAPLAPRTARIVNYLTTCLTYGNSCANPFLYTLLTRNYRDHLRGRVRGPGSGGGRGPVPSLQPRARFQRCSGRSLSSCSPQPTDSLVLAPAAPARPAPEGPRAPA
# Thoracic aorta [3] = test: Contractile activity in Sprague-Dawley rat thoracic aorta assessed as contraction in aortic ring preincubated ofr 30 mins followed by human U2-stimulation (reference value: 8.59 +/- 0.12); format: functional, tissue-based
# Thoracic aorta [4] = test: Contractile activity in Sprague-Dawley rat thoracic aorta assessed as ratio of KCl-induced contraction to human U2-induced contraction in aortic ring at 3 x 10^-6 M (reference value: 101 +/- 4 %); format: functional
# Thoracic aorta [5] = test: Contractile activity in Sprague-Dawley rat thoracic aorta assessed as ratio of KCl-induced contraction to human U2-induced contraction in aortic ring at 10^-6 M (reference value: 101 +/- 4 %); format: functional
# Thoracic aorta [6] = test: Contractile activity in Sprague-Dawley rat thoracic aorta assessed as ratio of KCl-induced contraction to URP-induced contraction in aortic ring at 10^-6 M (reference value: 107 +/- 3 %); format: functional
# Thoracic aorta [7] = test: Contractile activity in Sprague-Dawley rat thoracic aorta assessed as contraction in aortic ring preincubated ofr 30 mins followed by URP-stimulation (reference value: 8.16 +/- 0.08); format: functional, tissue-based
# Thoracic aorta [8] = test: Contractile activity in Sprague-Dawley rat thoracic aorta assessed as contraction in aortic ring at 10^-5 M relative to control; format: functional
# Thoracic aorta [9] = test: Contractile activity in Sprague-Dawley rat thoracic aorta assessed as ratio of KCl-induced contraction to URP-induced contraction in aortic ring at 3 x 10^-6 M (reference value: 107 +/- 3 %); format: functional
# Thoracic aorta [10] = test: Contractile activity in Sprague-Dawley rat thoracic aorta assessed as ratio of KCl-induced contraction to URP-induced contraction in aortic ring at 10^-5 M (reference value: 107 +/- 3 %); format: functional
# Thoracic aorta [11] = test: Contractile activity in Sprague-Dawley rat thoracic aorta assessed as ratio of KCl-induced contraction to human U2-induced contraction in aortic ring at 10^-5 M (reference value: 101 +/- 4 %); format: functional
EC50 (Thoracic aorta [1]),IC50 (Urotensin-2 receptor),EC50 (Thoracic aorta [3]),EC50 (Thoracic aorta [7]),Structure (SMILES),Emax (Thoracic aorta [2]),Emax at 3 µM (Thoracic aorta [4]),Emax at 1 µM (Thoracic aorta [5]),Emax at 1 µM (Thoracic aorta [6]),Emax at 10 µM (Thoracic aorta [8]),Emax at 3 µM (Thoracic aorta [9]),Emax at 10 µM (Thoracic aorta [10]),Emax at 10 µM (Thoracic aorta [11])
6.92 nM,5.13 nM,,,CC(C)[C@H](NC(=O)[C@@H]1CSSC[C@H](NC(=O)[C@H](C)N)C(=O)N[C@@H](Cc2ccccc2)C(=O)N[C@@H](Cc2c[nH]c3ccccc23)C(=O)N[C@@H](CCCCN)C(=O)N[C@@H](Cc2ccc(O)cc2)C(=O)N1)C(=O)O,107%,,,,,,,
> 3160 nM,36.3 nM,7.59 nM,12.9 nM,CC(C)[C@H](NC(=O)[C@@H]1CSSC[C@H](NC(=O)[C@H](C)N)C(=O)N[C@@H](Cc2ccccc2)C(=O)N[C@@H](Cc2ccc(-c3ccsc3)cc2)C(=O)N[C@@H](CCCCN)C(=O)N[C@@H](Cc2ccc(O)cc2)C(=O)N1)C(=O)O,,20%,105%,115%,,,,
> 3160 nM,155 nM,1.41 to 4.47 nM,2.95 to 6.46 nM,CC(C)[C@H](NC(=O)[C@@H]1CSSC[C@H](NC(=O)[C@H](C)N)C(=O)N[C@@H](Cc2ccccc2)C(=O)N[C@@H](Cc2ccc(-c3ccncc3)cc2)C(=O)N[C@@H](CCCCN)C(=O)N[C@@H](Cc2ccc(O)cc2)C(=O)N1)C(=O)O,,5 to 25%,70%,96%,9%,94%,92%,
> 3160 nM,,,,CC(C)[C@H](NC(=O)[C@@H]1CSSC[C@H](NC(=O)[C@H](C)N)C(=O)N[C@@H](Cc2ccccc2)C(=O)N[C@@H](Cc2ccc(OCc3ccccc3)cc2)C(=O)N[C@@H](CCCCN)C(=O)N[C@@H](Cc2ccc(O)cc2)C(=O)N1)C(=O)O,,80%,,,,,,
> 3160 nM,102 nM,2.09 nM,8.51 nM,CC(C)[C@H](NC(=O)[C@@H]1CSSC[C@H](NC(=O)[C@H](C)N)C(=O)N[C@@H](Cc2ccccc2)C(=O)N[C@@H](Cc2ccc(-c3cccnc3)cc2)C(=O)N[C@@H](CCCCN)C(=O)N[C@@H](Cc2ccc(O)cc2)C(=O)N1)C(=O)O,,24%,94%,102%,,,,
47.9 nM,3.16 nM,,,CC(C)[C@H](NC(=O)[C@@H]1CSSC[C@H](NC(=O)[C@H](C)N)C(=O)N[C@@H](Cc2ccccc2)C(=O)N[C@H](Cc2ccc(-c3ccccc3)cc2)C(=O)N[C@@H](CCCCN)C(=O)N[C@@H](Cc2ccc(O)cc2)C(=O)N1)C(=O)O,97%,,,,,,,
7.76 nM,135 nM,2.24 to 3.39 nM,6.61 to 12 nM,CC(C)[C@H](NC(=O)[C@@H]1CSSC[C@H](NC(=O)[C@H](C)N)C(=O)N[C@@H](Cc2ccccc2)C(=O)N[C@@H](Cc2ccc(-c3ccc(-c4ccccc4)cc3)cc2)C(=O)N[C@@H](CCCCN)C(=O)N[C@@H](Cc2ccc(O)cc2)C(=O)N1)C(=O)O,9%,65%,79%,99%,,95%,92%,55%
28.2 nM,12 nM,,,CC(C)[C@H](NC(=O)[C@@H]1CSSC[C@H](NC(=O)[C@H](C)N)C(=O)N[C@@H](Cc2ccccc2)C(=O)N[C@H](Cc2ccc(C#Cc3ccccc3)cc2)C(=O)N[C@@H](CCCCN)C(=O)N[C@@H](Cc2ccc(O)cc2)C(=O)N1)C(=O)O,99%,,,,,,,
28.8 nM,2.45 nM,,,CC(C)[C@H](NC(=O)[C@@H]1CSSC[C@H](NC(=O)[C@H](C)N)C(=O)NC(Cc2ccccc2)C(=O)N[C@H](Cc2ccc(I)cc2)C(=O)N[C@@H](CCCCN)C(=O)N[C@@H](Cc2ccc(O)cc2)C(=O)N1)C(=O)O (stereo in doubt),114%,,,,,,,
